# From patent US11993561B2, “Expectorant compound, preparation method thereof and use thereof” (priority 2019, dated 2024)
# Structures can show the parent of a compound that is named as a salt.
# Legend:
# Type in all cases: in vivo
# [1] = Acute toxicity test in mice administered intravenously; settings: male, ICR, mouse, in vivo, iv
# Method: (§1) Acute toxicity test of the compound of the present disclosure to mice administered intravenously
# (§2) To test the acute toxicity of compounds of the present disclosure and comparative compounds, the following experiments were performed.
# (§3) Compounds of the present disclosure were dissolved in water and administered to 5 ICR mice (mice of 5-week old, male, weighing 20 g±2 g). Intravenous administration was performed to determine the median lethal dose (LD50, mg/kg). Ambroxol hydrochloride was used as a control.
# ICR mice = assay: as above; settings: ICR mice, intravenous
# Method: as §1, §2, §3
# mice = assay: Expectorant test in mice using a phenol red method; settings: for Expectorant effect (secretion of phenol red in tracheal segment), result in words: comparison between groups; for Tracheal phenol red excretion: n=10, phenol red i.p. 1 h after dosing, sacrifice 0.5 h later
# Method: In Vivo Pharmacodynamic Test—Expectorant Test in Mice Using a Phenol Red Method
# In this example, the in vivo efficacy of the compounds I1, I4, I13 of the present disclosure and known compounds was tested.
# Mice in the positive control group were give medicinal ammonium chloride and ambroxol hydrochloride orally, mice in the normal control group were given normal saline of the same amount, and mice the other groups were given corresponding drugs by gavage. The mice were administered by gavage once in the morning and afternoon (excluding ammonium chloride) 2 days before the experiment. After 1 hour of intragastric administration on the morning of the experiment, the mice were intraperitoneally injected with 0.5 ml of phenol red, and the mice were sacrificed 0.5 hours later. The tissue surrounding the organs was peeled off, and a section of the trachea from the thyroid cartilage to the branch of the trachea was cut off and placed in a test tube containing 2 ml of normal saline. The tube was shaken for 30 minutes, the trachea was discarded, and 0.2 ml of sodium hydroxide (1 mol/L) was added to each sample solution. The OD value was measured using a UV-visible spectrophotometer at a wavelength of 546 nm, and the absorbance values were converted into the phenol red content according to the phenol red standard curve.
# The data was processed by PEMS medical statistical software.
# [2] = gavage, dose 0.5 ml/kg (low dose)
# [3] = gavage, dose 2.0 ml/kg (high dose)
Compound,LD50 [1],"LD50 compared with ambroxol hydrochloride, in words (ICR mice)","Expectorant effect (secretion of phenol red in tracheal segment), result in words (mice)",Tracheal phenol red excretion (mice; [2]),Tracheal phenol red excretion (mice; [3]),"Tracheal phenol red excretion (mice; oral, dose 1.0 ml/kg)",Dose-effect relationship of expectorant effect (mice; 0.5 vs 2.0 ml/kg)
"Cl.Nc1c(Br)cc(Br)cc1CN[C@H]1CC[C@H](S)CC1 [I1, trans-4-[(2-amino-3,5-dibromo-benzyl)amino]-cyclohexanethiol hydrochloride]",453 mg/kg,much higher,best effect,1.225 ± 0.337 ΔΔ** mg/L,1.610 ± 0.284 ΔΔ** mg/L,,
"Cl.N [Ammonium chloride, ammonium chloride, reference compound]",,,,,,0.875 ± 0.208 ΔΔ** mg/L,
"Nc1c(Br)cc(Br)cc1CN[C@H]1CC[C@H](O)CC1 [Ambroxol, ambroxol hydrochloride, reference compound]",268 mg/kg,,best effect,,1.418 ± 0.352 ΔΔ** mg/L,,
"Nc1c(Br)cc(Br)cc1CN[C@H]1CC[C@H](SCCCO)CC1 [I13, trans 3-[4-(2-amino-3,5-dibromo-benzylamino)-cyclohexylsulfanyl]-propan-1-ol]",507 mg/kg,much higher,strongest effect,1.452 ± 0.351 ΔΔ** mg/L,1.826 ± 0.334 ΔΔ** mg/L,,relatively obvious dose-effect relationship
"CC(=O)N[C@@H](CS)C(=O)O [Acetylcysteine, acetylcysteine, reference compound]",,,,,1.532 ± 0.247 ΔΔ** mg/L,,
"CN(Cc1cc(Br)cc(Br)c1N)[C@H]1CC[C@H](S)CC1.Cl [I4, trans-4-[(2-amino-3,5-dibromo-benzyl)-methyl-amino]-cyclohexanethiol hydrochloride]",523 mg/kg,much higher,,1.083 ± 0.312 ΔΔ** mg/L,1.273 ± 0.275 ΔΔ** mg/L,,
